Test results from patent US8633324B2, “Denibulin di-hydrochloride” (Medicinova, Inc., priority 2011, dated 2014).
Where a name gives a salt, the structure may show the parent alone. Read-outs that look alike come from different tables or passages of the source.

What was measured:
[1] = Solubility in citrate buffer at different pH values (1M sodium hydroxide added), HPLC; format: physicochemical; details: for solubility: aqueous buffer, thermodynamic from solid, read-out: Solubility (free base equivalent)
Description: To investigate the solubility of MN-029 di-hydrochloride in citrate buffer, the di-hydrochloride salt was added in multiple small portions to 10 milliliters of an aqueous solution of citric acid (3.87 mg/ml). When no more solid dissolved, that is, when saturation was achieved, the solution in the vial was allowed to equilibrate for approximately 24 hours with shaking at 25° C. […] The pH of the saturated solution was measured prior to filtration of undissolved solid. The filtrate obtained was equally divided into five vials.
To the filtrate in each of the vials was added different volumes of 1M sodium hydroxide so as to increase the pH of the filtrate to a predetermined pH value. It was observed that the addition of base caused solid to precipitate out of solution. The reaction mixture is allowed to equilibrate with shaking at 25° C., following which the solid residue is filtered and the filtrate obtained is analyzed for presence of dissolved compound by HPLC.

[2] = Log P, Log Pion, Log D by potentiometric titration (Sirius GlpKa, octanol:water); format: physicochemical; details: octanol:ionic-strength adjusted water
From the text: Most drugs have an ideal log P value and any deviation from this idealized value results in reduced absorption, slow transport of drug to the site of action and consequently, a decrease in biological activity. Table 8, illustrates the predicted and measured values for partition coefficients of MN-029 di-hydrochloride. The data was collected by potentiometric titration using a Sirius GlpKa instrument using three ratios of octanol:ionic-strength adjusted water to generate Log P, Log Pion and Log D values and the raw data was analyzed using Refinement Pro Software V.1.0. The predicted value of Log P was obtained using ACD V. software and Syracuse KOWWIN V.1.67 softwares.

fold less soluble at pH of about 5.5 than at pH of about 1.0 [1]: approximately 3000 fold
solubility ([1]; pH 0.96, 25° C.): 2900 µg/mL
solubility ([1]; pH 2.03, 25° C.): 1600 µg/mL
solubility ([1]; pH 3.23, 25° C.): 39 µg/mL
solubility ([1]; pH 5.57, 25° C.): < 1 µg/mL
Measured LogPion(cation) [2]: 0.93
Measured LogD7.4 ([2]; pH 7.4): 2.10
logD ([2]; pH 7.4, read-out: Measured LogD7.4): 2.1
logP ([2]; read-out: Measured LogP): 2.64
Compound: COC(=O)Nc1nc2ccc(Sc3ccc(NC(=O)[C@H](C)N)cc3)cc2[nH]1 [MN-029 di-hydrochloride, carbamic acid N-[6-[[4-[[(2S)-2-amino-1-oxopropyl]amino]phenyl]thio]-1H-benzimidazol-2-yl]-methyl ester di-hydrochloride]
